Data as given in PubChem BioAssay AID248 (DTP/NCI, 2004).
Toxic doses and inconclusive results are not listed.

System: L1210 leukemia ip in BDF1 mice, survival T/C
Test: NCI In Vivo Anticancer Drug Screen. Data for tumor model L1210 Leukemia (intraperitoneal) in B6D2F1 (BDF1) mice
Conditions: endpoint: mean survival time, vehicle: carboxymethylcellulose (CMC), higher = longer survival
How it was run: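 In this screen, tumor-bearing mice given compound are compared to those given vehicle, and their survival values are reported as a treated-to-control quotient.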

In the case of `CCN=C(c1ccc(NC(=O)c2ccc(C(=O)Nc3ccc(C(=NCC)N(CC)CC)cc3)c(Cl)c2)cc1)N(CC)CC`, the T/C (dose: 0.94 mg/kg/injection, schedule: Q01DX Z (ip)) is reported as 94 % of control.

For `CC(=O)OCc1ccc(OC(C)=O)cn1`, the T/C (dose: 100.0 mg/kg/injection, schedule: Q01DX001 (ip)) was 100 % of control, the T/C (dose: 200.0 mg/kg/injection, schedule: Q01DX001 (ip)) was 103 % of control and the T/C (dose: 400.0 mg/kg/injection, schedule: Q01DX001 (ip)) was 94 % of control.
